These results are taken from patent publication US12691124B2, “Methods of controlling and improving brain health” (ICAHN SCHOOL OF MEDICINE AT MOUNT SINAI, priority 2019, dated 2026).

In this experiment the test system is BRD2 or BRD4. The experiment is described as follows: ChIP sequencing, BRD2 or BRD4 promoter occupancy versus gene expression. It counts as cell-based, mouse. Here is the method: Chromatin Immunoprecipitation with Sequencing. Primary cortical neuronal cultures were washed once with PBS then fixed for 10 minutes with a 1% formaldehyde solution in PBS with protease inhibitors (Sigma #P8340) at room temperature. Fixation was quenched adding glycine to a final concentration of 0.125M (5 minutes, room temperature). 10e6 fixed cells were resuspended in 1 ml of lysis buffer (50 mM Hepes KOH, pH7.5, 140 mM NaCl, 1 mM EDTA, 10% glycerol, 0.5% NP-40, 0.25% Triton X-100) and 10 ul of protease inhibitor cocktail (PIC). Samples were rotated for 10 minutes at 4 degrees then spun at 1350 g at 4 C for 10 minutes. Pellets were resuspended in 1 ml of lysis buffer 2 (10 mM Tris-HCl pH8.0, 200 mM NaCl, 1 mM EDTA, 0.5 mM EGTA) and 10 ul PIC.). 5e6 nuclei were sonicated in lysis buffer 3 (10 mM Tris-HCl pH8.0, 100 mM NaCl, 1 mM EDTA, 0.5 mM EGTA, 0.1% Na-Deoxicholate, 0.5% N-Lauroylsarcosine) at 4 degrees for 5 cycles of 30 seconds ON/30 seconds OFF using the Diagenode bioruptor. After, 30 ul of 10% Triton-X100 was added to each sample and then spun for 15 minutes at 20,000 g at 4 degrees. Sonication efficiency was checked by running the samples on a 2% agarose gel to confirm enrichment for fragments from 200-500 bps.
Streptavidin M-280 dynabeads were blocked with 0.5% BSA solution and coupled to 7 ug of antibody (Brd4 #Ab84778, Brd2 Bethyl #A302-583A, Pol2 Ser5 #Ab5408) for at least 8 hours at 4 degrees, rotating. Antibody-coupled beads were then added to sonicated chromatin (20e6 cells for Brd2/Brd4, 10e6 for Pol2) and incubated overnight at 4 degrees. After washing the IPs eight times with wash buffer (50 mM Hepes-KOH pH7.6, 100 mM LiCl, 1 mM EDTA, 1% NP-40, 0.7% Na-Deoxycholate) and once with TE buffer (10 mM Tris-HCl, 1 mM EDTA, 50 mM NaCl), Chromatin was eluted from magnetic beads in 200 ul elution buffer ([…] Tris-HCl pH8.0, 10 mM EDTA, 1% SDS) for 45 minutes at 65 degrees. Samples were de-crosslinked overnight at 65 degrees and proteins and RNA were removed by incubating with RNAse and proteinase k. Samples were purified using the Qiagen PCR purification kit according to the manufacturers protocol.
Samples were end-repaired using the End-IT DNA End-Repair Kit (#ER0720). After 45 minutes incubation, samples were purified using the Qiagen PCR Clean up kit as described above. Samples were adenylated using a reaction mix (200 uM dATP, 1× Klenow buffer NEB2, Klenow Fragment (3′ to 5′ exo-), NEB M0212L) and incubating at 37 degrees for 30 minutes. After, samples were purified as above except using the Minelute columns to minimize sample loss. Adapters were ligated to samples using a reaction mix containing T4 DNA ligase buffer, Solexa adapter oligo mix and 1200 units of T4 DNA ligase. The samples were incubated according to the following PCR program: 1) 20 C for 15 min, 2) 4 C for 2 h, 3) 0.1 C/sec to 16 C, 4) 16 C for 20 min, 5) 0.1 C/sec to 4 C, 6) back to step 2 for 6 cycles. Samples were purified using the Minelute kit as described above. Samples were amplified using a reaction mix containing the Phusion HF buffer, 300 uM dNTP mix, 3% DMSO, diluted Solexa primers 1.0 and 2.0, and 1 unit of Phusion polymerase. Samples were amplified according to the following program: 1) 30 sec at 98 C, 2) 18 cycles of: 10 sec at 98 C, 30 sec at 65 C, 30 sec at 72 C, 3) 5 min 72 C. Prepared samples were then sequenced on the HiSeq 2000 platform by Rockefeller's Genomic Core Facility. Bioinformatic analysis was performed by the Shen Lab. Briefly, raw sequencing data was processed by using Illumina bcl2fastq2 Conversion Software v2.17. The ChIP-seq data was first checked for quality using the various metrics generated by FastQC. Raw sequencing reads were then aligned to the mouse mm9 genome using the default settings of Bowtie (v2.2.0)87. Only uniquely mapped reads were retained, and the alignments were subsequently filtered using the SAMtools package (v0.1.19)88 to remove duplicate reads. […]

On to `CC(=O)N1c2ccc(-c3ccc(CN4CCCCC4)cc3)cc2[C@H](Nc2ccccc2)CC1C` (stereo in doubt) [IBET858], for which the “displacement of BET proteins from the chromatin” value is given as “displaces all three BET proteins from the chromatin”. The “down-regulated genes that are bound by Brd2 or Brd4” value (1 week IBET858, 844/1391) is recorded as 61%. Under “6 h IBET858”, the “genes with increased promoter occupancy of BRD2 or BRD4 that are also transcriptionally upregulated” value is recorded as 212 genes and the “genes with reduced promoter occupancy of BRD2 or BRD4 that are also transcriptionally downregulated” value came to 528 genes. Also, the “down-regulated genes that are bound by Brd2 or Brd4” value (12 h IBET858, 733/1158) is recorded as 63%. For the same compound, the “gene promoters with reduced BET binding” value (short-term treatment 6 h) is on record as “approximately 1000 gene promoters”.
